# In patent publication US20250144164A1, “COMPOSITIONS, METHODS, AND MEDICAL COMPOSITIONS FOR TREATMENT OF AND MAINTAINING THE HEALTH OF THE LIVER” (priority 2023, published 2025):
# Test system: CCl4-induced hepatotoxicity model
# Assay: Carbon tetrachloride (CCl4)-induced hepatotoxicity model, serum ALT and survival
# Type: in vivo, ICR/CD-1 mice
# Settings: CCL4 25 μl/kg; dose 50 mg/kg
smiles,measurement,value
C=CCc1cc(OC)c2c(c1)OCO2 [Myristicin],% Change (inhibition in serum ALT),99.7%
